In US20080039319A1, “Fungicidal Mixtures and Novel Triazolopyrimidines” (Basf Aktiengesellschaft, priority 2004, published 2008):

What was measured:
[1] = system: Pyrenophora [syn. Drechslera] teres; test: Use Example 4: net blotch of barley caused by Pyrenophora teres, second test; format: in vivo; details: individual active compound
Botrytis cinerea = test: Use Example 7: activity against gray mold on bell pepper leaves caused by Botrytis cinerea, protective application; format: in vivo; details: individual active compound
Phytophthora infestans = details: in vivo
Alternaria solani [2] = test: Comparative Test 1: activity against early blight of tomato caused by Alternaria solani; format: in vivo; details: individual active compound
Plasmopara viticola = test: Comparative Test 3: activity against Peronospora of grapevines caused by Plasmopara viticola; format: in vivo; details: individual active compound
[3] = system: Erysiphe [syn. Blumeria] graminis forma specialis. Tritici; test: Use Example 5: activity against mildew of wheat caused by Erysiphe [syn. Blumeria] graminis forma specialis tritici, 3-day protective application; format: in vivo, Erysiphe graminis f. sp. tritici; details: individual active compound
Alternaria solani [4] = test: Use Example 6: activity against early blight of tomato caused by Alternaria solani (second test); format: in vivo; details: individual active compound
[5] = system: Pyrenophora [syn. Drechslera] teres; test: Use Example 4: activity against net blotch of barley caused by Pyrenophora teres, 1-day protective application (first test); format: in vivo; details: individual active compound
Sphaerotheca fuliginea = test: Use Example 8: activity against mildew on cucumber leaves caused by Sphaerotheca fuliginea, protective application; details: in vivo

N#Cc1c(Cl)c(Cl)c(Cl)c(C#N)c1Cl [chlorothalonil (Q-1), 2,4,5,6-tetrachloroisophthalonitrile]
Efficacy in % of the untreated control ([1]; 12.5 ppm in the spray liquor): 0%
Efficacy in % of the untreated control ([1]; 50 ppm in the spray liquor): 0%
Efficacy in % of the untreated control ([1]; 100 ppm in the spray liquor): 0%

S1SSSSSSS1 [sulfur (M-1), sulfur]
Efficacy in % of the untreated control (Botrytis cinerea; 0.3125 ppm in the spray liquor): 22%
Efficacy in % of the untreated control (Botrytis cinerea; 0.625 ppm in the spray liquor): 56%

CC1CCN(c2c(-c3c(F)cccc3Cl)c(Cl)nc3ncnn23)CC1 [(π)]
Efficacy in % of the untreated control (Phytophthora infestans): 0%
Efficacy in % of the untreated control (Alternaria solani [2]; 2.5 ppm in the spray liquor): 0%
Efficacy in % of the untreated control (Alternaria solani [2]; 5 ppm in the spray liquor): 21%
Efficacy in % of the untreated control (Alternaria solani [2]; 10 ppm in the spray liquor): 44%
Efficacy in % of the untreated control (Plasmopara viticola; 5 ppm in the spray liquor): 5%
Efficacy in % of the untreated control (Plasmopara viticola; 10 ppm in the spray liquor): 19%

manganese ethylenebis(dithiocarbamate) zinc complex [mancozeb (K-1)]
Efficacy in % of the untreated control ([1]; 6.3 ppm in the spray liquor): 0%
Efficacy in % of the untreated control ([1]; 12.5 ppm in the spray liquor): 0%
Efficacy in % of the untreated control ([1]; 50 ppm in the spray liquor): 0%

CC(Cc1ccc(C(C)(C)C)cc1)CN1CC(C)OC(C)C1 [fenpropimorph (D-1), 4-[3-(4-tert-butylphenyl)-2-methylpropyl]-2,6-dimethylmorpholine]
Efficacy in % of the untreated control ([3]; 15 ppm in the spray liquor): 0%
Efficacy in % of the untreated control ([3]; 30 ppm in the spray liquor): 67%

COC(=O)NC(=S)Nc1ccccc1NC(=S)NC(=O)OC [thiophanate-methyl (L-4), dimethyl 1,2-phenylenebis(iminocarbonothioyl)bis(carbamate)]
Efficacy in % of the untreated control (Alternaria solani [4]; 100 ppm in the spray liquor): 0%
Efficacy in % of the untreated control ([1]; 6.3 ppm in the spray liquor): 0%
Efficacy in % of the untreated control ([1]; 100 ppm in the spray liquor): 0%

zinc ammoniate ethylenebis(dithiocarbamate) [metiram (K-2)]
Efficacy in % of the untreated control ([1]; 12.5 ppm in the spray liquor): 0%
Efficacy in % of the untreated control ([1]; 50 ppm in the spray liquor): 0%
Efficacy in % of the untreated control ([1]; 100 ppm in the spray liquor): 0%

Fc1ccc([C@]2(Cn3cncn3)O[C@H]2c2ccccc2Cl)cc1 (racemic) [epoxiconazole (A-1), (2RS,3SR)-1-[3-(2-chlorophenyl)-2,3-epoxy-2-(4-fluorophenyl)propyl]-1H-1,2,4-triazole]
Efficacy in % of the untreated control ([5]; 1.25 ppm in the spray liquor): 0%
Efficacy in % of the untreated control ([5]; 2.5 ppm in the spray liquor): 20%
Efficacy in % of the untreated control ([5]; 5 ppm in the spray liquor): 77%

OC(Cn1cncn1)(c1ccc(F)cc1)c1ccccc1F (stereo not shown) [flutriafol (A-2), 1-(4-fluorophenyl)-1-(2-fluorophenyl)-2-[1,2,4]triazol-1-ylethanol]
Efficacy in % of the untreated control ([5]; 1.25 ppm in the spray liquor): 0%
Efficacy in % of the untreated control ([5]; 2.5 ppm in the spray liquor): 0%
Efficacy in % of the untreated control ([5]; 5 ppm in the spray liquor): 0%

O=C1C2CC=CCC2C(=O)N1SC(Cl)(Cl)Cl (stereo not shown) [captan (P-1), 2-trichloromethylsulfanyl-3a,4,7,7a-tetrahydroisoindole-1,3-dione]
Efficacy in % of the untreated control (Plasmopara viticola; 12.5 ppm in the spray liquor): 0%
Efficacy in % of the untreated control (Plasmopara viticola; 50 ppm in the spray liquor): 0%
Efficacy in % of the untreated control (Botrytis cinerea; 12.5 ppm in the spray liquor): 11%
Efficacy in % of the untreated control (Botrytis cinerea; 100 ppm in the spray liquor): 56%

CC(C)OC(=O)c1cc(C(=O)OC(C)C)cc([N+](=O)[O-])c1 [nitrophthal-isopropyl (N-1), diisopropyl 5-nitroisophthalate]
Efficacy in % of the untreated control (Botrytis cinerea; 12.5 ppm in the spray liquor): 0%
Efficacy in % of the untreated control (Botrytis cinerea; 100 ppm in the spray liquor): 33%

O=C(Nc1ccccc1-c1ccc(Cl)cc1)c1cccnc1Cl [boscalid (L-2), 2-chloro-N-(4′-chlorobiphenyl-2-yl)nicotinamide]
Efficacy in % of the untreated control (Phytophthora infestans): 0%

N#Cc1sc2c(=O)c3ccccc3c(=O)c=2sc1C#N [dithianon (L-3), 5,10-dioxo-5,10-dihydronaphtho[2,3-b][1,4]dithiine-2,3-dicarbonitrile]
Efficacy in % of the untreated control (Phytophthora infestans): 0%

COc1ccc(C(=CC(=O)N2CCOCC2)c2ccc(Cl)cc2)cc1OC [dimethomorph (G-1), 3-(4-chlorophenyl)-3-(3,4-dimethoxyphenyl)-1-morpholin4-ylpropenone]
Efficacy in % of the untreated control (Alternaria solani [2]; 3.125 ppm in the spray liquor): 0%
Efficacy in % of the untreated control (Alternaria solani [2]; 12.5 ppm in the spray liquor): 0%
Efficacy in % of the untreated control (Alternaria solani [2]; 25 ppm in the spray liquor): 0%
Efficacy in % of the untreated control (Alternaria solani [2]; 50 ppm in the spray liquor): 0%

CC1(C)CCC(Cc2ccc(Cl)cc2)C1(O)Cn1cncn1 (stereo not shown) [metconazole (A-3), 5-(4-chlorobenzyl)-2,2-dimethyl-1-[1,2,4]triazol-1-ylmethylcyclopentanol]
Efficacy in % of the untreated control ([5]; 1.25 ppm in the spray liquor): 0%
Efficacy in % of the untreated control ([5]; 2.5 ppm in the spray liquor): 0%
Efficacy in % of the untreated control ([5]; 5 ppm in the spray liquor): 0%

CC(C)NC(=O)N1CC(=O)N(c2cc(Cl)cc(Cl)c2)C1=O [iprodione (F-1), N-isopropyl-3-(3,5-dichlorophenyl)-2,4-dioxoimidazolidine-1-carboxamide]
Efficacy in % of the untreated control (Alternaria solani [4]; 12.5 ppm in the spray liquor): 0%
Efficacy in % of the untreated control (Alternaria solani [4]; 100 ppm in the spray liquor): 0%
Efficacy in % of the untreated control ([1]; 12.5 ppm in the spray liquor): 0%
Efficacy in % of the untreated control ([1]; 50 ppm in the spray liquor): 0%

COCC(=O)N(c1c(C)cccc1C)C(C)C(=O)OC (racemic) [metalaxyl (C-1), methyl N-(methoxyacetyl)-N-(2,6-xylyl)-DL-alaninate]
Efficacy in % of the untreated control (Alternaria solani [2]; 6.25 ppm in the spray liquor): 0%
Efficacy in % of the untreated control (Alternaria solani [2]; 50 ppm in the spray liquor): 0%

N#Cc1c[nH]cc1-c1cccc2c1OC(F)(F)O2 [fludioxonil (O-1), 4-(2,2-difluorobenzo[1,3]dioxol-4-yl)-1H-pyrrole-3-carbonitrile]
Efficacy in % of the untreated control (Sphaerotheca fuliginea): 56%

COC(=O)N(OC)c1ccccc1COc1ccn(-c2ccc(Cl)cc2)n1 [pyraclostrobin (B-1), methyl N-{2-[1-(4-chlorophenyl)-1H-pyrazol-3-yloxymethyl]phenyl}(N-methoxy)carbamate]
Efficacy in % of the untreated control (Alternaria solani [4]; 0.3125 ppm in the spray liquor): 22%
Efficacy in % of the untreated control (Alternaria solani [4]; 0.625 ppm in the spray liquor): 56%
